Legend:
[1] = test system: BPV-1; assay: BPV-1 focus-forming assay, cells pre-incubated with compound and washed before virus (Table D); type: cell-based, bovine papilloma virus; details: for Average ± standard deviation (foci/well): C127-D10 cells, washed before virus
Procedure: Microbicidal activity of compounds was also tested by pre-incubation of cells with compounds followed by addition of virus to compound-coated C127 cells. In these experiments, dilutions of compounds were added to cultures of C127 cells, incubated for 1 hr at 37° C., washed 3 times with media to remove unbound compound, prior to addition of approximately 100 focus-forming units of BPV-1. The cultures were incubated for an additional hour, washed three times to remove unbound virus, then the incubation was continued for two weeks with media changes every 3-4 days and foci counted as described above.
Pre-incubation of C127-D10 cells with compounds prior to addition of BPV-1 was tested to determine whether the microbicidal effects of CS and DS extended to a blockage of virus interaction with cell surfaces. In these experiments, titrations of compounds were added to cell cultures followed by washing away unbound reagent prior to addition of virus. After a one-hour incubation with virus, unbound virus was removed by washing and the cultures monitored for foci after two weeks.

[2] = test system: Aspergillus niger; assay: Microbial challenge of CS gel; type: cell-based
Procedure: (§1) 6% CS was prepared in water as a translucent gel. Twenty grams of the gel was placed in a plastic screw-cap centrifuge tube. The microbial inoculants were prepared, gently vortexed and 0.1 ml inoculant was aseptically pipetted into the 20.0 gram gel. This procedure was repeated for each microbial organism. The samples were incubated at room temperature (20-25° C.) for 14 days or 28 days. The microbes tested and their theoretical yields can be found in Table F. After 14 or 28 days incubation, dilutions (10^−1, 10^−2, 10^−3) of the gels were made in saline and 1 ml plated onto Sabouraud dextrose (Aspergillus and Candida) or onto tryptic soy (other microbes). The number of organisms that grew after 3-7 days at room temperature were counted.
(§2) In another study, CS was dissolved in water at the concentrations indicated below. No other ingredients, including preservatives, were added. The gels were challenged with microbes as described above except that the gels were examined for the presence of microbes after 1, 2, 3, 4 and 7 days. The amount of microbes origially inoculated in the gels is also shown below.

[3] = test system: Candida albicans; assay: Microbial challenge of CS gel; type: cell-based
Procedure: as §1, §2

[4] = test system: Staphylococcus aureus; assay: Microbial challenge of CS gel; type: cell-based
Procedure: as §1, §2

[5] = test system: Porphyromonas levii; assay: Agar method MIC; type: cell-based; details: for CS MIC: Agar
[6] = test system: Eubacterium lentum; assay: Broth method MIC; type: cell-based; details: for CS MIC: Broth (study 2)
[7] = test system: Peptostreptococcus asaccharolyticus; assay: Broth method MIC; type: cell-based; details: for CS MIC: Broth (study 2)
[8] = CS gel in as low a concentration as 0.6%

Substance: sodium cellulose sulfate
- Average ± standard deviation (foci/well) ([1]; 10 μg/ml): 103 ± 6.3 foci/well
- Average ± standard deviation (foci/well) ([1]; 100 μg/ml): 120 ± 8.4 foci/well
- Average ± standard deviation (foci/well) ([1]; 1,000 μg/ml): 87 ± 45.1 foci/well
- Average ± standard deviation (foci/well) ([1]; 10,000 μg/ml): 2 ± 1.3 foci/well
- microbicidal effects ([1]; C127-D10 cells pre-treated, except at 10 mg/ml): only weak microbicidal effects
- Day 14 CFU/g ([2]; 6% CS gel, ATCC 16404, room temperature, Day 14): 0 CFU/g
- Day 28 CFU/g ([2]; 6% CS gel, ATCC 16404, room temperature, Day 28): 0 CFU/g
- Asperigillus niger CFU ([2]; CS 0.06% in water, 24 hours): 0 CFU × 10^5/ml
- Asperigillus niger CFU ([2]; CS 0.06% in water, 48 hours): 0 CFU × 10^5/ml
- Asperigillus niger CFU ([2]; CS 0.06% in water, 72 hours): 0 CFU × 10^5/ml
- Asperigillus niger CFU ([2]; CS 0.06% in water, 96 hours): 0 CFU × 10^5/ml
- Asperigillus niger CFU ([2]; CS 0.06% in water, 7 days): 0 CFU × 10^5/ml
- Asperigillus niger CFU ([2]; CS 0.6% in water, 24 hours): 0 CFU × 10^5/ml
- Asperigillus niger CFU ([2]; CS 0.6% in water, 48 hours): 0 CFU × 10^5/ml
- Asperigillus niger CFU ([2]; CS 0.6% in water, 72 hours): 0 CFU × 10^5/ml
- Asperigillus niger CFU ([2]; CS 0.6% in water, 96 hours): 0 CFU × 10^5/ml
- Asperigillus niger CFU ([2]; CS 0.6% in water, 7 days): 0 CFU × 10^5/ml
- Asperigillus niger CFU ([2]; CS 1.2% in water, 24 hours): 0 CFU × 10^5/ml
- Asperigillus niger CFU ([2]; CS 1.2% in water, 48 hours): 0 CFU × 10^5/ml
- Asperigillus niger CFU ([2]; CS 1.2% in water, 72 hours): 0 CFU × 10^5/ml
- Asperigillus niger CFU ([2]; CS 1.2% in water, 96 hours): 0 CFU × 10^5/ml
- Asperigillus niger CFU ([2]; CS 1.2% in water, 7 days): 0 CFU × 10^5/ml
- Asperigillus niger CFU ([2]; CS 6% in water, 24 hours): 0 CFU × 10^5/ml
- Asperigillus niger CFU ([2]; CS 6% in water, 48 hours): 0 CFU × 10^5/ml
- Asperigillus niger CFU ([2]; CS 6% in water, 72 hours): 0 CFU × 10^5/ml
- Asperigillus niger CFU ([2]; CS 6% in water, 96 hours): 0 CFU × 10^5/ml
- Asperigillus niger CFU ([2]; CS 6% in water, 7 days): 0 CFU × 10^5/ml
- inactivation of Asperigillus [2, 8]: completely inactivated
- Day 14 CFU/g ([3]; 6% CS gel, ATCC 10231, room temperature, Day 14): 0 CFU/g
- Day 28 CFU/g ([3]; 6% CS gel, ATCC 10231, room temperature, Day 28): 0 CFU/g
- Candida albicans CFU ([3]; CS 0.06% in water, 24 hours): 0 CFU × 10^5/ml
- Candida albicans CFU ([3]; CS 0.06% in water, 48 hours): 0 CFU × 10^5/ml
- Candida albicans CFU ([3]; CS 0.06% in water, 72 hours): 0 CFU × 10^5/ml
- Candida albicans CFU ([3]; CS 0.06% in water, 96 hours): 0 CFU × 10^5/ml
- Candida albicans CFU ([3]; CS 0.06% in water, 7 days): 0 CFU × 10^5/ml
- Candida albicans CFU ([3]; CS 0.6% in water, 24 hours): 0 CFU × 10^5/ml
- Candida albicans CFU ([3]; CS 0.6% in water, 48 hours): 0 CFU × 10^5/ml
- Candida albicans CFU ([3]; CS 0.6% in water, 72 hours): 0.62 CFU × 10^5/ml
- Candida albicans CFU ([3]; CS 0.6% in water, 96 hours): 0.655 CFU × 10^5/ml
- Candida albicans CFU ([3]; CS 0.6% in water, 7 days): 0.535 CFU × 10^5/ml
- Candida albicans CFU ([3]; CS 1.2% in water, 24 hours): 0 CFU × 10^5/ml
- Candida albicans CFU ([3]; CS 1.2% in water, 48 hours): 0 CFU × 10^5/ml
- Candida albicans CFU ([3]; CS 1.2% in water, 72 hours): 0 CFU × 10^5/ml
- Candida albicans CFU ([3]; CS 1.2% in water, 96 hours): 0 CFU × 10^5/ml
- Candida albicans CFU ([3]; CS 1.2% in water, 7 days): 0 CFU × 10^5/ml
- Candida albicans CFU ([3]; CS 6% in water, 24 hours): 0 CFU × 10^5/ml
- Candida albicans CFU ([3]; CS 6% in water, 48 hours): 0 CFU × 10^5/ml
- Candida albicans CFU ([3]; CS 6% in water, 72 hours): 0 CFU × 10^5/ml
- Candida albicans CFU ([3]; CS 6% in water, 96 hours): 0 CFU × 10^5/ml
- Candida albicans CFU ([3]; CS 6% in water, 7 days): 0 CFU × 10^5/ml
- inactivation of Candida ([3]; CS gel 1.2 and 6%): Complete inactivation
- inactivation of Candida [3, 8]: inactivated
- inactivation of Staphylococcus ([4]; 0.06% CS gel, slow growth thereafter): initially inactivated most Staphylococcus
- inactivation of Staphyloccus ([4]; 6% CS gel): completely inactivated
- Day 14 CFU/g ([4]; 6% CS gel, ATCC 6538, room temperature, Day 14): 0 CFU/g
- Day 28 CFU/g ([4]; 6% CS gel, ATCC 6538, room temperature, Day 28): 0 CFU/g
- Staphylococcus aureus CFU ([4]; CS 0.06% in water, 24 hours): 0.625 CFU × 10^5/ml
- Staphylococcus aureus CFU ([4]; CS 0.06% in water, 48 hours): 0.715 CFU × 10^5/ml
- Staphylococcus aureus CFU ([4]; CS 0.06% in water, 72 hours): 1.04 CFU × 10^5/ml
- Staphylococcus aureus CFU ([4]; CS 0.06% in water, 96 hours): 2.06 CFU × 10^5/ml
- Staphylococcus aureus CFU ([4]; CS 0.06% in water, 7 days): 5.815 CFU × 10^5/ml
- Staphylococcus aureus CFU ([4]; CS 0.6% in water, 24 hours): 5.17 CFU × 10^5/ml
- Staphylococcus aureus CFU ([4]; CS 0.6% in water, 48 hours): 5.53 CFU × 10^5/ml
- Staphylococcus aureus CFU ([4]; CS 0.6% in water, 72 hours): 4.82 CFU × 10^5/ml
- Staphylococcus aureus CFU ([4]; CS 0.6% in water, 96 hours): 6.41 CFU × 10^5/ml
- Staphylococcus aureus CFU ([4]; CS 0.6% in water, 7 days): 3.25 CFU × 10^5/ml
- Staphylococcus aureus CFU ([4]; CS 1.2% in water, 24 hours): 2.71 CFU × 10^5/ml
- Staphylococcus aureus CFU ([4]; CS 1.2% in water, 48 hours): 4.725 CFU × 10^5/ml
- Staphylococcus aureus CFU ([4]; CS 1.2% in water, 72 hours): 2.39 CFU × 10^5/ml
- Staphylococcus aureus CFU ([4]; CS 1.2% in water, 96 hours): 3.96 CFU × 10^5/ml
- Staphylococcus aureus CFU ([4]; CS 1.2% in water, 7 days): 3.55 CFU × 10^5/ml
- Staphylococcus aureus CFU ([4]; CS 6% in water, 24 hours): 0 CFU × 10^5/ml
- Staphylococcus aureus CFU ([4]; CS 6% in water, 48 hours): 0.005 CFU × 10^5/ml
- Staphylococcus aureus CFU ([4]; CS 6% in water, 72 hours): 0 CFU × 10^5/ml
- Staphylococcus aureus CFU ([4]; CS 6% in water, 96 hours): 0 CFU × 10^5/ml
- Staphylococcus aureus CFU ([4]; CS 6% in water, 7 days): 0 CFU × 10^5/ml
- inactivation of Staphyloccus ([4]; lower CS concentrations): not inactivated but growth was prevented
- lowest concentration of compound that inhibited growth ([5]; Example 8, agar, 48 hours anaerobic, highest tested 625 μg/ml): 40 µg/mL
- CS MIC ([5]; rma# 11425): >625 µg/mL
- CS MIC ([5]; rma# 11601): 40 µg/mL
- growth inhibition ([6]; both strains): inhibited
- CS MIC ([6]; rma# 9420): 5000 µg/mL
- CS MIC ([6]; rma# 11700): 10000 µg/mL
- growth inhibition ([7]; all strains): inhibited
- CS MIC ([7]; rma# 11587): 10000 µg/mL
- CS MIC ([7]; rma# 11607): 10000 µg/mL
